Measured values published in US6936584B1, “Mixed amylin activity compounds” (Amylin Pharmaceuticals, Inc., priority 1998, dated 2005).
Entries after “also recorded” stand apart in the source; their conditions may differ. Values belong to the molecule of their own block, whether it stands above or below them. Square brackets hold non-standard residues; d marks the D form. Ends that are not written are not given here. * marks the point of attachment. 125I = iodine-125 radiolabel, [125I]*; Aib = CC(C)(N)C(=O)O; For = O=C*

Experiments:
[1] = Effect on plasma glucose, lactate and calcium levels in anesthetized rats; format: in vivo, rat; details: 100 μg subcutaneous
[2] = system: effects of rat amylin on plasma levels of glucose, lactate and calcium; experiment: Effect on plasma glucose, lactate, calcium and mean arterial pressure in the presence of amylin, anesthetized rats; format: in vivo
[3] = system: gastric emptying in rats; experiment: Phenol red gastric emptying assay in conscious rats; details: for inhibition of gastric emptying: conscious rat model, adrenomedullin at highest doses (100 μg); for ED50 inhibiting gastric emptying (FIG. 7): conscious rats; for dose at which suppression of gastric emptying was complete / ED50 for inhibition of gastric emptying: subcutaneous; for ED50 for inhibition of gastric emptying: normal (Harlan Sprague Dawley) rats, ±0.19 log units
[4] = target: T1, calcitonin receptors (Homo sapiens, UniProt P30988); experiment: Adenyl cyclase stimulation, cyclic AMP accumulation in MCF7-7 cells; format: cell-based
T1 sequence (P30988 25-474): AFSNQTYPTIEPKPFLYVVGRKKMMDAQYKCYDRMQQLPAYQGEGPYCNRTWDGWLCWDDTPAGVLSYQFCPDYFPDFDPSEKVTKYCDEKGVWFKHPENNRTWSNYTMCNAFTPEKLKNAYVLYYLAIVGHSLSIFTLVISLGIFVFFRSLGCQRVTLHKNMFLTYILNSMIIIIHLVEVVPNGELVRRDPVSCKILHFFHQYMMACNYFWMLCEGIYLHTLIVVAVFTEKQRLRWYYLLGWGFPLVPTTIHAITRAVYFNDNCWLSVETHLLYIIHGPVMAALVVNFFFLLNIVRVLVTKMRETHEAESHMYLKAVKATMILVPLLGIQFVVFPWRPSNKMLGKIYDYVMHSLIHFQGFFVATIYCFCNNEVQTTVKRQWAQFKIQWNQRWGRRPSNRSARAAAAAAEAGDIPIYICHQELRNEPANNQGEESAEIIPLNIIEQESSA

[5] = target: T1, calcitonin receptors; experiment: Binding to membranes from T47D cells (calcitonin receptors), displacement of [125I]salmon calcitonin; parameters: Membranes were prepared from confluent cultures of T47D cells; host or cells: T47D human breast carcinoma cells; details: for affinity for calcitonin receptors compared with amylin receptors: calcitonin (T47D) versus amylin (nucleus accumbens) receptors; for IC50: T47D membranes, mean ± SEM (n), read-out: Receptor IC50 in nM [mean ± SEM (n)] Calcitonin
[6] = system: isolated soleus muscle; details: insulin 7.1 nM
[7] = target: T2, CGRP receptors (Homo sapiens, UniProt O60894+Q16602); experiment: Binding to membranes from SK-N-MC cells (CGRP receptors), displacement of [125I]human-CGRP; details: read-out: Receptor IC50 in nM [mean ± SEM (n)] CGRP
T2 construct: SK-N-MC cells (ATCC No. HTB-10) were homogenized in 50 mM Hepes buffer; host or cells: SK-N-MC human neuroblastoma cells

[8] = target: T3, amylin receptors (Rattus norvegicus, UniProt P32214); experiment: Binding to rat nucleus accumbens membranes (amylin receptors), displacement of 125I-BH-rat amylin; details: read-out: Receptor IC50 in nM [mean ± SEM (n)] Amylin
T3 sequence (P32214 25-516): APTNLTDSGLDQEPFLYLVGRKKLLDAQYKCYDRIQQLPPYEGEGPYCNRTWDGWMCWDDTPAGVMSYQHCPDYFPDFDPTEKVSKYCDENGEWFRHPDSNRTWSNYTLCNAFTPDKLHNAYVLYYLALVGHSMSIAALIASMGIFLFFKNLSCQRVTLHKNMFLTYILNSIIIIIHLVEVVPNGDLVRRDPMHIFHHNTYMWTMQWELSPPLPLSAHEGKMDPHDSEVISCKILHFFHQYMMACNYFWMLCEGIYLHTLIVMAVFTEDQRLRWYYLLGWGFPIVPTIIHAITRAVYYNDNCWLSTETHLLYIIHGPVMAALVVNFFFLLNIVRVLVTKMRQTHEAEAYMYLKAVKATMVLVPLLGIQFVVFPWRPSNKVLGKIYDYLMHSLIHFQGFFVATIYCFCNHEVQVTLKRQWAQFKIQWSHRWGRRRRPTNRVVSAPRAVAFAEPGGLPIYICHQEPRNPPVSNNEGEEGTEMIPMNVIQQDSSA

[9] = target: human calcitonin receptors (T47D and MCF7-7 breast carcinoma cells) (human) (UniProt P30988); experiment: cell-based or functional assay
[10] = target: T4, amylin receptors of rat nucleus accumbens membranes (rat); experiment: radioligand competition, 125I-BH-rat amylin on rat nucleus accumbens membranes
T4 chain 1: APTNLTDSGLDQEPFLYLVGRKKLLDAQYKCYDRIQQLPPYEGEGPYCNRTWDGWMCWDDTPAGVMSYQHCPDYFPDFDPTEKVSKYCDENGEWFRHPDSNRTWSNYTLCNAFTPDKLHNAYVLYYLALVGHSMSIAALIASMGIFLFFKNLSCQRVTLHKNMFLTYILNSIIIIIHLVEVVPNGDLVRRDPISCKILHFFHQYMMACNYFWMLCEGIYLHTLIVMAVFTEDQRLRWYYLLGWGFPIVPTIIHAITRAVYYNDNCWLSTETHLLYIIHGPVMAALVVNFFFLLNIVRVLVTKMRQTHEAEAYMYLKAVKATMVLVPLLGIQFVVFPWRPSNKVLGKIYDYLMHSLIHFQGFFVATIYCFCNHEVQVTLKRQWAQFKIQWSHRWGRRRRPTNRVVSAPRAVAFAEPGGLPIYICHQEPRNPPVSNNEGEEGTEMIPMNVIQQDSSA
T4 chain 2: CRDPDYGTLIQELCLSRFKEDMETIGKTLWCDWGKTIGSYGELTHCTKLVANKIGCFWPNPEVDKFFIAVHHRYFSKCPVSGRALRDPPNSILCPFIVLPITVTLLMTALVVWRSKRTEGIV

[11] = target: T5, human CGRP receptors (SK-N-MC neuroblastoma cells) (human, UniProt Q16602 23-461; O60894 27-148); experiment: radioligand competition, SK-N-MC membranes against rat nucleus accumbens membranes
T5 construct: whole, on cells; also called CGRP (SK-N-MC) receptors

[12] = target: T5, human CGRP receptors (SK-N-MC …); experiment: radioligand competition, [125I]human CGRP on SK-N-MC cell membranes
[13] = target: T6, human calcitonin receptors (T47D and MCF7-7 breast carcinoma cells) (human, UniProt P30988 25-474); experiment: radioligand competition, [125I]salmon calcitonin on T47D cell membranes
T6 construct: whole, on cells; also called calcitonin (T47D) receptors
T6 sequence (looked up): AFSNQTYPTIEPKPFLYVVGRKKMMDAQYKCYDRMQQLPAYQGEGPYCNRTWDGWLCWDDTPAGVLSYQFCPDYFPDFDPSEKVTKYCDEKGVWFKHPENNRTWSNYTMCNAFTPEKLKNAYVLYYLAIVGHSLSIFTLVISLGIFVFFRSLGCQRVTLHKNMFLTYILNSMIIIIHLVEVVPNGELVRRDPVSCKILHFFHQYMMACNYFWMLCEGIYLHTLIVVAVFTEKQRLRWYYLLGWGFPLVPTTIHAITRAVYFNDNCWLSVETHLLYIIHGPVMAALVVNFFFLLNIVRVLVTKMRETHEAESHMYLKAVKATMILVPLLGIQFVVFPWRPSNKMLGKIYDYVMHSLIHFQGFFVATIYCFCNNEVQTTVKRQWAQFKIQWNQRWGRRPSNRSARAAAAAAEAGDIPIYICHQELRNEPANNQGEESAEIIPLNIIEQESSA

[14] = target: T6, human calcitonin receptors (T47D and …); experiment: cell-based or functional assay
[15] = target: T7, rat calcitonin C1a receptor (rat, UniProt P32214 25-516); experiment: cell-based or functional assay
T7 sequence (looked up): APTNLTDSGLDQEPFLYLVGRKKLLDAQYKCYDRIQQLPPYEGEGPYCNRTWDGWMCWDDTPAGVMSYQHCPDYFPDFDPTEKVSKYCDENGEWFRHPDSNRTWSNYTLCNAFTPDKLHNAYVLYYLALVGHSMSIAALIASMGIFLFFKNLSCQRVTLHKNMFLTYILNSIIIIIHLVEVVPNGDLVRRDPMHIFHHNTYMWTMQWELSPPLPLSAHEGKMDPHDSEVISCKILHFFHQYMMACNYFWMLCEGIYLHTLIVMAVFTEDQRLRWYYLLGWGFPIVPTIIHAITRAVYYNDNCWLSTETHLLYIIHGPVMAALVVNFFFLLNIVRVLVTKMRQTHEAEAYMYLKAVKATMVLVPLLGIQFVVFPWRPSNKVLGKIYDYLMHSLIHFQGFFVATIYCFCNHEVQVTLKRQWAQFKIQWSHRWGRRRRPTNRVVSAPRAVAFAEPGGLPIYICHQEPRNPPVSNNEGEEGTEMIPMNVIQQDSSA

[16] = target: T6, human calcitonin receptors (T47D and …); experiment: radioligand Kd used to derive Ki, T47D cell membranes
[17] = intravenous preinfusion of test compound, then rat amylin 50 μg bolus + 50 μg/hour, versus saline preinfusion

T5 sequence (Q16602 23-461, chain 1 of 2): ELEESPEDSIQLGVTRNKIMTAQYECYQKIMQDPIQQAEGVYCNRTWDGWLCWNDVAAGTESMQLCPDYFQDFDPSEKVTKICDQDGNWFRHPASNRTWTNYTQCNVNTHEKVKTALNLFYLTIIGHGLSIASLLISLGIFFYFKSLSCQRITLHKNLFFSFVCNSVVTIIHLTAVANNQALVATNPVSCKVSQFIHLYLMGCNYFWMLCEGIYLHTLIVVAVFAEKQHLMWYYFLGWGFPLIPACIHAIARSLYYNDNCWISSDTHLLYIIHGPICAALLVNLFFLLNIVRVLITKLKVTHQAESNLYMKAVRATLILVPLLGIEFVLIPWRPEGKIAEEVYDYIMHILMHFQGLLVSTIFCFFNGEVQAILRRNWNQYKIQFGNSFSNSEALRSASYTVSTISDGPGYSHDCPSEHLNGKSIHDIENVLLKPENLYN
T5 sequence (O60894 27-148, chain 2 of 2): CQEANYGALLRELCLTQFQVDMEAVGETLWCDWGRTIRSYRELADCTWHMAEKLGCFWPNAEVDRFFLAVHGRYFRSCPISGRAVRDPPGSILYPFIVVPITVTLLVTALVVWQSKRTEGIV
T2 sequence (Q16602 23-461): as the sequence (Q16602 23-461, chain 1 of 2) above
T2 sequence (O60894 27-148 partner): as the sequence (O60894 27-148, chain 2 of 2) above

Molecule: 4-methylpentanoyl-Ser-Thr-Ala-Val-Leu-Aib-Lys(For)-Leu-Ser-Gln-Glu-Leu-Aib-Lys(For)-Leu-Gln-Thr-Tyr-Pro-Arg-Thr-Asn-Thr-Gly-Ser-Gly-Thr-Pro [Compound 2]
plasma calcium concentration [1]: caused a fall in plasma calcium concentration | plasma glucose [1]: neither Compound 1 nor Compound 2 increased | plasma lactate [1]: neither Compound 1 nor Compound 2 increased | plasma calcium levels ([2]; after infusion of test compound, with subsequent amylin infusion): A fall in plasma calcium levels | increase in plasma glucose after amylin administration [2, 17]: smaller increases | increase in plasma lactate after amylin administration [2, 17]: smaller increases | reversal of the blood pressure lowering effect of amylin (mean arterial pressure) ([2]; intravenous preinfusion of test compound, then rat amylin infusion): lack of ability of these compounds to reverse the blood pressure lowering effect of amylin | inhibition of gastric emptying [3]: behaved as potent amylin and calcitonin agonists in inhibition of gastric emptying | fold less potent than human calcitonin in stimulating adenyl cyclase activity [4]: 3.5 fold | functional activity at calcitonin receptors [4]: partial agonist activity | increase in cyclic AMP as percent of the increase produced by human calcitonin [4]: approximately 20% | affinity for calcitonin receptors compared with amylin receptors [5]: greater affinity for calcitonin receptors than for amylin receptors | amylin antagonist activity, reversal of the effect of amylin on insulin-stimulated incorporation of glucose into glycogen ([6]; amylin 100 nM, test compound 1 μM): reversed | amylin agonist activity, inhibition of insulin-stimulated incorporation of glucose into glycogen ([6]; test compound 100 nM): no discernable amylin agonist activity; also recorded: neither Compound 1 (100 nM) nor Compound 2 (100 nM) affected the response to insulin

Molecule: Adrenomedullin: observed to behave as a CGRP agonist but not as an amylin or calcitonin agonist (YRQSMNNFQGLRSFGCRFGTCTVQKLAHQIYQFTDKDKDNVAPRSKISPQGY; ends and bridges not checked; cysteine pairing not given here; UniProt P35318 95-146, looked up)
inhibition of gastric emptying [3]: does not inhibit gastric emptying

Molecule: LSTAVLGRLSQELHRLQTYPRTNTGSNTY [Compound 6]
IC50 [7]: > 10000 nM | IC50 [8]: 18.6 ± 5.3 nM | fold less potent than human calcitonin in stimulating adenyl cyclase activity [4]: 80 fold | EC50 ([4]; read-out: EC50 cyclic AMP accumulation / adenylyl cyclase activity): 34 nM | IC50 [5]: 0.56 nM | affinity for calcitonin receptors compared with amylin receptors [5]: greater affinity for calcitonin receptors than for amylin receptors

Molecule: LSTSVLGRLSQELHRLQTYPRTNTGSNTY [Compound 3]
IC50 [7]: > 10000 nM | IC50 [8]: 37 ± 4.6 nM | IC50 [5]: 1.45 nM | affinity for calcitonin receptors compared with amylin receptors [5]: greater affinity for calcitonin receptors than for amylin receptors

Molecule: Leu-Ser-Thr-Ala-Val-Leu-Gly-Arg-Leu-Ser-Gln-Glu-Leu-His-Arg-Leu-Gln-Thr-Tyr-Pro-Arg-Thr-Asn-Thr-Gly-Ser-Asn-Thr-Tyr [Compound 4]
fold less potent than human calcitonin in stimulating adenyl cyclase activity [4]: 7 fold

Molecule: Salmon calcitonin
inhibition of gastric emptying [3]: dose-dependently inhibit gastric emptying | ED50 inhibiting gastric emptying (FIG. 7) [3]: 0.12 μg/rat

fold less potent than calcitonin in stimulating adenyl cyclase activity, MCF7-7 cells [9]: 5 fold | fold less potent than calcitonin in stimulating adenyl cyclase activity, T47D cells [9]: 7 fold
Molecule: human amylin (from UniProt P10997 34-70) (ligand)

Molecule: rat amylin: Synthetic rat amylin (Bachem, Torrance, Calif.), positive control
plasma calcium concentration [1]: fall | plasma glucose [1]: increase | plasma lactate [1]: increase | dose at which suppression of gastric emptying was complete ([3]; diabetic rats): 10 µg | ED50 for inhibition of gastric emptying ([3]; 5 minutes before gavage): 0.43 µg | ED50 for inhibition of gastric emptying [3]: 0.60 nmol/kg | dose at which suppression of gastric emptying was complete ([3]; normal HSD rats): 1 µg

Molecule: rat calcitonin
inhibition of gastric emptying [3]: dose-dependently inhibit gastric emptying | ED50 inhibiting gastric emptying (FIG. 7) [3]: 0.41 μg/rat

IC50 [10]: 0.25 nM | fold lower affinity than for the amylin receptors [11]: ≥ 300 fold | IC50 [12]: 160 nM | IC50 [13]: 0.22 nM | EC50 of cyclic AMP accumulation, T47D cells [14]: 2.2 nM | EC50 of adenyl cyclase activity, cells expressing rat calcitonin C1a receptors [15]: 0.97 nM
B1: Compound 1 (peptide)
peptide: LSTCVLGRLSQELHRLQTYPRTNTGSNTY
notes: Synthetic 29-residue peptide

Kd [16]: 0.019 nM
B2: [^125I]salmon calcitonin (ligand, UniProt P01263 83-114, looked up)
peptide: CSNLSTCVLGKLSQELHKLQTY(125I)PRTNTGSGTP
modifications: ends and bridges not checked
notes: mature; also called labeled salmon calcitonin

IC50 [13]: 93 nM
B3: Compound 8 (peptide)
peptide: VL[Aib]K(For)LSQEL[Aib]K(For)LQTYPRTNTGSNTY-NH2

IC50 [10]: 37 nM | fold lower affinity than for the amylin receptors [11]: ≥ 300 fold | IC50 [13]: 1.45 nM
B4: Compound 3 (peptide)
peptide: XLSTSVLGRLSQELHRLQTYPRTNTGSNTY
modifications: N-terminal acetyl (Ac-Leu)

IC50 [10]: 18.6 nM | fold lower affinity than for the amylin receptors [11]: ≥ 300 fold | IC50 [13]: 0.56 nM | EC50 of adenylyl cyclase stimulation, MCF7-7 cells [14]: 34 nM | fold lower potency than human calcitonin, MCF7-7 cells [14]: 80 fold
B5: Compound 6 (peptide)
peptide: XLSTAVLGRLSQELHRLQTYPRTNTGSNTY
modifications: N-terminal acetyl (Ac-Leu)
